Results published in ChEMBL document CHEMBL4004838, “Design and synthesis of novel phenyl -1, 4-beta-carboline-hybrid molecules as potential anticancer agents” (Eur J Med Chem, 2017).
Activity calls are given as the source filed them. The calls are words filed in the database; no cut-off is given here.

Assays:
[1] = organism: Bos taurus; test: Induction of calf thymus DNA intercalation assessed as compound-DNA complex formation at 5 uM incubated for 1 hr by ethidium bromide staining based agarose gel electrophoresis relative to control
[2] = system: SNB-75; test: Growth inhibition of human SNB75 cells incubated for 48 hrs by sulforhodamine B assay; format: functional; details: SNB-75, 48 h
[3] = system: Malme-3M; test: Growth inhibition of human MALME-3M cells incubated for 48 hrs by sulforhodamine B assay; format: functional
[4] = system: M14; test: Growth inhibition of human M14 cells incubated for 48 hrs by sulforhodamine B assay; format: functional; details: M14, 48 h
[5] = system: OVCAR-5; test: Growth inhibition of human OVCAR5 cells incubated for 48 hrs by sulforhodamine B assay; format: functional; details: OVCAR-5, 48 h
[6] = system: HL-60(TB); test: Growth inhibition of human HL-60(TB) cells assessed as cell growth at 0.01 uM incubated for 48 hrs by sulforhodamine B assay relative to control; format: functional; details: HL-60, 48 h, read-out: Activity
[7] = system: HOP-62; test: Growth inhibition of human HOP62 cells assessed as cell growth at 0.01 uM incubated for 48 hrs by sulforhodamine B assay relative to control; format: functional; details: HOP-62, 48 h, read-out: Activity
[8] = system: NCI-H322M; test: Growth inhibition of human NCI-H322M cells assessed as cell growth at 0.01 uM incubated for 48 hrs by sulforhodamine B assay relative to control; format: functional; details: read-out: Activity
[9] = system: KM12; test: Growth inhibition of human KM12 cells assessed as cell growth at 0.01 uM incubated for 48 hrs by sulforhodamine B assay relative to control; format: functional; details: KM12, 48 h, read-out: Activity
[10] = system: SW-620; test: Growth inhibition of human SW620 cells assessed as cell growth at 0.01 uM incubated for 48 hrs by sulforhodamine B assay relative to control; format: functional; details: SW-620, 48 h, read-out: Activity
[11] = system: MDA-MB-435; test: Growth inhibition of human MDA-MB-435 cells assessed as cell growth at 0.01 uM incubated for 48 hrs by sulforhodamine B assay relative to control; format: functional; details: MDA-MB-435, 48 h, read-out: Activity
[12] = system: SK-MEL-2; test: Growth inhibition of human SK-MEL-2 cells assessed as cell growth at 0.01 uM incubated for 48 hrs by sulforhodamine B assay relative to control; format: functional; details: SK-MEL-2, 48 h, read-out: Activity
[13] = system: A498; test: Growth inhibition of human A498 cells assessed as cell growth at 0.01 uM incubated for 48 hrs by sulforhodamine B assay relative to control; format: functional; details: A498, 48 h, read-out: Activity
[14] = system: ACHN; test: Growth inhibition of human ACHN cells assessed as cell growth at 0.01 uM incubated for 48 hrs by sulforhodamine B assay relative to control; format: functional; details: read-out: Activity
[15] = system: TK-10; test: Growth inhibition of human TK10 cells assessed as cell growth at 0.01 uM incubated for 48 hrs by sulforhodamine B assay relative to control; format: functional; details: TK-10, 48 h, read-out: Activity
[16] = system: MCF7; test: Growth inhibition of human MCF7 cells assessed as cell growth at 0.01 uM incubated for 48 hrs by sulforhodamine B assay relative to control; format: functional; details: MCF7, 48 h, read-out: Activity
[17] = system: HL-60(TB); test: Growth inhibition of human HL-60(TB) cells assessed as cell growth at 0.1 uM incubated for 48 hrs by sulforhodamine B assay relative to control; format: functional; details: HL-60, 48 h, read-out: Activity
[18] = system: A549; test: Growth inhibition of human A549/ATCC cells assessed as cell growth at 0.1 uM incubated for 48 hrs by sulforhodamine B assay relative to control; format: functional; details: A549, 48 h, read-out: Activity
[19] = system: SW-620; test: Growth inhibition of human SW620 cells assessed as cell growth at 0.1 uM incubated for 48 hrs by sulforhodamine B assay relative to control; format: functional; details: SW-620, 48 h, read-out: Activity
[20] = system: A498; test: Growth inhibition of human A498 cells assessed as cell growth at 0.1 uM incubated for 48 hrs by sulforhodamine B assay relative to control; format: functional; details: A498, 48 h, read-out: Activity
[21] = system: MDA-MB-468; test: Growth inhibition of human MDA-MB-468 cells assessed as cell growth at 0.1 uM incubated for 48 hrs by sulforhodamine B assay relative to control; format: functional; details: MDA-MB-468, 48 h, read-out: Activity
[22] = system: NCI-H522; test: Growth inhibition of human NCI-H522 cells assessed as cell growth at 1 uM incubated for 48 hrs by sulforhodamine B assay relative to control; format: functional; details: NCI-H522, 48 h, read-out: Activity
[23] = system: SF-268; test: Growth inhibition of human SF268 cells assessed as cell growth at 1 uM incubated for 48 hrs by sulforhodamine B assay relative to control; format: functional; details: SF-268, 48 h, read-out: Activity
[24] = system: SNB-75; test: Growth inhibition of human SNB75 cells assessed as cell growth at 1 uM incubated for 48 hrs by sulforhodamine B assay relative to control; format: functional; details: SNB-75, 48 h, read-out: Activity
[25] = system: U-251; test: Growth inhibition of human U251 cells assessed as cell growth at 1 uM incubated for 48 hrs by sulforhodamine B assay relative to control; format: functional; details: U-251, 48 h, read-out: Activity
[26] = system: A498; test: Growth inhibition of human A498 cells assessed as cell growth at 1 uM incubated for 48 hrs by sulforhodamine B assay relative to control; format: functional; details: A498, 48 h, read-out: Activity
[27] = system: RXF 393; test: Growth inhibition of human RXF393 cells assessed as cell growth at 1 uM incubated for 48 hrs by sulforhodamine B assay relative to control; format: functional; details: RXF 393, 48 h, read-out: Activity
[28] = system: SR; test: Growth inhibition of human SR cells assessed as cell growth at 100 uM incubated for 48 hrs by sulforhodamine B assay relative to control; format: functional; details: read-out: Activity
[29] = system: NCI-H522; test: Growth inhibition of human NCI-H522 cells assessed as cell growth at 100 uM incubated for 48 hrs by sulforhodamine B assay relative to control; format: functional; details: NCI-H522, 48 h, read-out: Activity
[30] = system: SK-MEL-2; test: Growth inhibition of human SK-MEL-2 cells assessed as cell growth at 100 uM incubated for 48 hrs by sulforhodamine B assay relative to control; format: functional; details: SK-MEL-2, 48 h, read-out: Activity
[31] = system: RXF 393; test: Growth inhibition of human RXF393 cells assessed as cell growth at 100 uM incubated for 48 hrs by sulforhodamine B assay relative to control; format: functional; details: RXF 393, 48 h, read-out: Activity
[32] = system: UO-31; test: Growth inhibition of human UO31 cells assessed as cell growth at 100 uM incubated for 48 hrs by sulforhodamine B assay relative to control; format: functional; details: UO-31, 48 h, read-out: Activity
[33] = read-out: LC50 (the source's name)
[34] = read-out: pLC50 (the source's name) (converted)

## c1ccc2c3c([nH]c2c1)C(c1ccc(C2NCCc4c2[nH]c2ccccc42)cc1)NCC3 (racemic)
[1]
  Activity: Active
[2]; [33]
  CC50: 4.59 µM
[2]; read-out: pGI50 (converted)
  GI50: 0.692 µM
[2]; [34]
  CC50: 4.57 µM
[2]; read-out: pTGI (converted)
  TGI: 2.09 µM
[3]; read-out: GI50
  GI50: 1.55 µM
[3]; [33]
  CC50: 6.24 µM
[3]; read-out: TGI
  TGI: 3.11 µM
[3]; read-out: pGI50 (converted)
  GI50: 1.55 µM
[3]; [34]
  CC50: 6.17 µM
[3]; read-out: pTGI (converted)
  TGI: 3.09 µM
[4]; [33]
  CC50: 4.65 µM
[4]; read-out: pGI50 (converted)
  GI50: 0.407 µM
[4]; [34]
  CC50: 4.68 µM
[4]; read-out: pTGI (converted)
  TGI: 1.58 µM
[5]; read-out: GI50
  GI50: 1.8 µM
[5]; [33]
  CC50: 9.65 µM
[5]; read-out: TGI
  TGI: 4.17 µM
[5]; read-out: pGI50 (converted)
  GI50: 1.82 µM
[5]; [34]
  CC50: 9.55 µM
[5]; read-out: pTGI (converted)
  TGI: 4.17 µM
[6]
  growth at 0.01 µM: 109%
[7]
  growth at 0.01 µM: 84%
[8]
  growth at 0.01 µM: 92%
[9]
  growth at 0.01 µM: 101%
[10]
  growth at 0.01 µM: 101%
[11]
  growth at 0.01 µM: 95%
[12]
  growth at 0.01 µM: 100%
[13]
  growth at 0.01 µM: 73%
[14]
  growth at 0.01 µM: 92%
[15]
  growth at 0.01 µM: 97%
[16]
  growth at 0.01 µM: 88%
[17]
  growth at 0.1 µM: 116%
[18]
  growth at 0.1 µM: 95%
[19]
  growth at 0.1 µM: 100%
[20]
  growth at 0.1 µM: 67%
[21]
  growth at 0.1 µM: 100%
[22]
  growth at 1 µM: 16%
[23]
  growth at 1 µM: 57%
[24]
  growth at 1 µM: 46%
[25]
  growth at 1 µM: 4%
[26]
  growth at 1 µM: 65%
[27]
  growth at 1 µM: 69%
[28]
  growth at 100 µM: -68%
[29]
  growth at 100 µM: 81%
[30]
  growth at 100 µM: 93%
[31]
  growth at 100 µM: -81%
[32]
  growth at 100 µM: -96%
